Results as given in ChEMBL document CHEMBL1131918, “Quantitative analysis of the kinetics of phospholipase A2 using fast atom bombardment mass spectrometry” (Bioorg Med Chem Lett, 1999).

Tests used:
[1] = system: phospholipase A2; experiment: Michaelis -Menten constant against phospholipase A2 was determined; type: ADME; conditions: phospholipase A2 enzyme
[2] = Catalytic rate constant against phospholipase A2 was determined; type: ADME

Row | SMILES | Km [1] [mM] | k cat [2] [µM/min/mg]
1 | CCCCCCCCCC(=O)OCC(COP(=O)([O-])OCC[N+](C)(C)C)OC(=O)CCCCCCCCC (centres undefined) | 2.4 | 1.06
2 | CCCCCCCCCC(=O)OCC(O)COP(=O)([O-])OCC[N+](C)(C)C (centres undefined) | 2.3 | 1.03
